Test results from US4273869A, “Cystic fibrosis detection method” (The Regents of the University of Minnesota, priority 1979, dated 1981).

System: fibroblasts from CF subjects, heterozygote carriers and controls
Assay: O2 consumption of skin fibroblast suspensions measured polarographically, with electron transport inhibitors
Assay type: cell-based, human
Procedure: Skin fibroblast strains from the upper arm were obtained from subjects with CF and age- and sex-matched controls and from obligate CF heterozygote parents and their age- and sex-matched controls. Cells were stored in liquid nitrogen at early passages and thawed for use as needed. In all but a few experiments, strains were passage matched. For O2 consumption studies and mitochondrial preparations, monolayers were grown in 285×115 mm roller bottles (Bellco Glass, N.J.). For NADH dehydrogenase studies, monolayers were grown in 75 cm^2 flasks (Falcon, Oxnard, Ca.). Monolayers were cultured in Eagle's minimal essential medium with Earle's salts plus L-glutamine (K. C. Biologicals, Inc., Lenexa, Kans.), supplemented with 10 percent fetal calf serum, 100 units per ml of penicillin, and 100 μg/ml of streptomycin (Gibco, Grand Island, N.Y.). The cultures were maintained at 37° in 95 percent air-5 percent CO2 atmosphere. Cells were harvested with trypsin-EDTA [(1:250 tryspin+0.2 g EDTA/1 (Gibco, Grand Island, N.Y.)].
Confluent monolayers of fibroblasts as prepared in Example 1 were harvested by trypsin-EDTA digestion. Cells were pelleted by centrifugation at 600×g for 5 min, washed with 10 ml of cold Hank's Balanced Salt Solution (HBSS) containing 0.1 mg/ml bovine serum albumin and 10 mg/ml dextrose, pH 7.4. 100 μl aliquots of the washed cell suspension were taken for cell counting using a ZBI Coulter Counter. The washed cells were again pelleted by centrifugation and resuspended in 1 ml cold HBSS. O2 consumption was measured polarographically on a cell suspension of 1×10^7 cells in a final volume of 3 ml by an O2 electrode system (Clark model 53, Yellow Springs Instruments, Ohio). […] In these experiments the baseline O2 uptake rate was determined for each cell line. Prior to removing the cells from the electrode chamber, 100 μl of 100 μ M rotenone were added and O2 consumption recorded. […]
The change in O2 consumption rate caused by rotenone was recorded as percent of initial O2 consumption rate. Each point represents percent inhibition measured on one cell strain.

Compound: C=C(C)[C@H]1Cc2c(ccc3c2O[C@@H]2COc4cc(OC)c(OC)cc4[C@@H]2C3=O)O1 [rotenone]
- Inhibition of O2 consumption (change in O2 consumption rate as percent of initial rate) (100 μl of 100 μM rotenone added to 1×10^7 cells in 3 ml, all cell strains tested): inhibited O2 consumption in all cell strains tested
- Relative inhibitory effect on O2 consumption among genotypes (100 μl of 100 μM rotenone, CF, HZ (carrier) and control fibroblast strains, FIG. 5): CF>HZ>controls
- O2 consumption after treatment with the inhibitor, compared between genotypes (cells treated with rotenone, CF subjects, carriers, controls): cells from cystic fibrosis subjects and carriers consume equal amounts of oxygen, as do controls
